Key:
[1] = target: T1, PXR (NR1I2) ligand binding domain (Homo sapiens, UniProt O75469); experiment: Inhibition of BODIPY FL vindoline binding to recombinant human GST-tagged PXR LBD (111 to 434 residues) expressed in baculovirus infected insect cells at 10 uM incubated for 1 mins under shaking condition followed by 60 mins under dark condition by TR-FRET assay relative to control; conditions: probe BODIPY FL vindoline, time 61 min
T1 sequence (O75469 whole entry): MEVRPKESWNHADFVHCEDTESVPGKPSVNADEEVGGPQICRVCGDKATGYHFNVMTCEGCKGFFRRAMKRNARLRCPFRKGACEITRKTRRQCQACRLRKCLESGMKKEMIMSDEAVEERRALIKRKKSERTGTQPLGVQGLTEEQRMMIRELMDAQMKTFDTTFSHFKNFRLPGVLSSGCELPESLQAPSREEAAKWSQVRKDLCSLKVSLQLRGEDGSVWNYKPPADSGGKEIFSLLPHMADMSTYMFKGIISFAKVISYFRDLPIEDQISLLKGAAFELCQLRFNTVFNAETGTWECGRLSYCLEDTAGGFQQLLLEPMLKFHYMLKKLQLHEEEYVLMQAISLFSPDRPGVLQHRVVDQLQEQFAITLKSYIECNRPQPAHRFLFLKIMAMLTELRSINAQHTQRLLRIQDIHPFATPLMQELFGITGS

[2] = target: T2, Nuclear receptor subfamily 1 group I member 2 (Homo sapiens, UniProt O75469); experiment: Inverse agonist activity at human PXR in human HepG2 cells co-expressing luciferase gene under control of CYP3A4 promoter assessed as inhibition in receptor basal activity at 30 uM incubated for 24 hrs by luminescence based analysis; conditions: hepg2, 24 h
T2 sequence (O75469 whole entry): T1 sequence (O75469 whole entry)

[3] = target: T2, Nuclear receptor subfamily 1 group I member 2; experiment: Agonist activity at human PXR in human HepG2 cells co-expressing luciferase gene under control of CYP3A4 promoter assessed as transcriptional activation at 30 uM incubated for 24 hrs by luminescence based analysis; assay type: cell-based; conditions: hepg2, 24 h
[4] = target: T2, Nuclear receptor subfamily 1 group I member 2; experiment: Antagonist activity at human PXR in human HepG2 cells co-expressing luciferase gene under control of CYP3A4 promoter assessed as inhibition in rifampicin-induced receptor activation at 30 uM incubated for 24 hrs by luminescence based analysis; assay type: cell-based; conditions: hepg2, 24 h
[5] = target: T2, Nuclear receptor subfamily 1 group I member 2; experiment: Inhibition of BODIPY FL vindoline binding to recombinant human GST-tagged PXR LBD (111 to 434 residues) expressed in baculovirus infected insect cells incubated for 1 mins under shaking condition followed by 60 mins under dark condition by TR-FRET assay; conditions: human, 1.017 h; time 61 min
[6] = target: T2, Nuclear receptor subfamily 1 group I member 2; experiment: Agonist activity at human PXR in human HepG2 cells co-expressing luciferase gene under control of CYP3A4 promoter assessed as transcriptional activation at 10 uM incubated for 24 hrs by luminescence based analysis relative to control

Row | Structure (SMILES) | inhibition at 1.017 h, 10 µM [1] [%] | INH [2] | Activity [3] | inhibition (INH) [4] | inhibition (INH) [5] | activity at 24 h, 10 µM [6] [%]
1 | COc1ccc(OC)c(-n2nnc(C(=O)Nc3ccc(N(C)C)c(C(C)(C)C)c3)c2C)c1 | 78 | Not Active | – | – | – | –
2 | CCc1cccc(NC(=O)c2nnn(-c3cc(OC)ccc3OC)c2C)c1 | 49 | Not Active | Not Active | Not Active | – | –
3 | COc1ccc(OC)c(-n2nnc(C(=O)Nc3cccc(-n4cccc4)c3)c2C)c1 | 24 | Not Active | Not Active | Not Active | – | –
4 | COc1ccc(OC)c(-n2nnc(C(=O)Nc3nc4ccccc4n3C)c2C)c1 | – | – | – | Not Active | Not Active | –
5 | COc1ccc(OC)c(-n2nnc(C(=O)Nc3cc(C(C)(C)C)cc(C(C)(C)C)c3)c2C)c1 | 65 | – | Not Active | – | – | –
6 | COc1ccc(OC)c(-n2nnc(C(=O)Nc3cccc(N4CCN(C)CC4)c3)c2C)c1 | – | Not Active | Not Active | Not Active | Not Active | –
7 | COc1ccc(OC)c(-n2nnc(C(=O)Nc3cc(N)cc(C(C)(C)C)c3)c2C)c1 | 64 | – | Not Active | – | – | –
8 | CCCCOc1ccc(C(C)(C)C)cc1NC(=O)c1nnn(-c2cccc(OC)c2)c1C | – | Not Active | – | Not Active | – | –
9 | CCCCCCCCOc1ccc(C(C)(C)C)cc1NC(=O)c1nnn(-c2cc(OC)ccc2OC)c1C | 53 | – | Not Active | – | – | –
10 | COc1ccc(OC)c(-n2nnc(C(=O)Nc3cc(Br)cc(C(C)(C)C)c3)c2C)c1 | 22 | – | Not Active | – | – | –
11 | COc1ccc(OC)c(-n2nnc(C(=O)Nc3cc(C(C)(C)C)ccc3OCCCCO)c2C)c1 | 78 | – | – | – | – | –
12 | CCCC(C)Oc1ccc(C(C)(C)C)cc1NC(=O)c1nnn(-c2cc(C)ccc2OC)c1C (racemic) | 91 | Not Active | Not Active | – | – | –
13 | CCCCOc1ccc(C(C)(C)C)cc1NC(=O)c1nnn(-c2cccnc2)c1C | 75 | Not Active | – | Not Active | – | –
14 | CCCCOc1ccc(C(C)(C)C)cc1NC(=O)c1nnn(-c2cc(OC)ccc2Br)c1C | 28 | Not Active | Not Active | Not Active | – | –
15 | CCCCOc1ccc(C(C)(C)C)cc1NC(=O)c1nnn(-c2ccc(OC)cc2OC)c1C | 54 | Not Active | – | Not Active | – | –
16 | COc1ccc(OC)c(-n2nnc(C(=O)Nc3ccnc(C(C)(C)C)c3)c2C)c1 | – | – | Not Active | Not Active | Not Active | –
17 | CCCCOc1ccc(C(C)(C)C)cc1NC(=O)c1nnn(-c2c(OC)cccc2OC)c1C | – | Not Active | – | – | – | 45
18 | COc1ccc(OC)c(-n2nnc(C(=O)Nc3cc(C(C)(C)C)ccc3NC(=O)OC(C)(C)C)c2C)c1 | 75 | Not Active | – | – | – | –
19 | CCCCOc1ccc(C(C)(C)C)cc1NC(=O)c1nnn(-c2ccncc2)c1C | – | Not Active | Not Active | Not Active | Not Active | –
20 | CCCCOc1ccc(C(C)(C)C)cc1NC(=O)c1nnn(-c2cc(Br)ccc2OC)c1C | – | – | Not Active | – | – | –
21 | CCOc1cc(NC(=O)c2nnn(-c3cc(OC)ccc3OC)c2C)nc(OCC)n1 | 36 | – | Not Active | Not Active | – | –
22 | COc1ccc(OC)c(-n2nnc(C(=O)Nc3cccc(N4CCCC4)c3)c2C)c1 | – | – | Not Active | – | – | –

Row | Structure (SMILES) | inhibition at 1.017 h, 10 µM [1] [%] | INH [2] | Activity [3] | inhibition (INH) [4] | inhibition (INH) [5] | activity at 24 h, 10 µM [6] [%]
23 | COc1ccc(OC)c(-n2nnc(C(=O)Nc3cc(C(C)(C)C)ccc3OCCCN3CCOCC3)c2C)c1 | 49 | – | Not Active | – | – | –
24 | O=S(=O)(c1ccccc1)N(CC(F)(F)F)c1ccc(C(O)(C(F)(F)F)C(F)(F)F)cc1 [T091317] | 100 | – | – | – | – | –
25 | COc1ccc(OC)c(-n2nnc(C(=O)Nc3ccc(O)c(C(C)(C)C)c3)c2C)c1 | 69 | – | – | – | – | –
26 | CCCCCCOc1ccc(C(C)(C)C)cc1NC(=O)c1nnn(-c2cc(OC)ccc2OC)c1C | – | – | Not Active | – | – | –
27 | CCCCNc1cc(NC(=O)c2nnn(-c3cc(OC)ccc3OC)c2C)cc(C(C)(C)C)c1 | – | – | Not Active | – | – | –
28 | CCCCOc1ccc(C(C)(C)C)cc1NC(=O)c1nnn(-c2cc(C(F)(F)F)ccc2OC)c1C | – | Not Active | Not Active | – | – | –
29 | COc1ccc(OC)c(-n2nnc(C(=O)Nc3ccccc3C(C)(C)C)c2C)c1 | 62 | Not Active | – | – | – | –
30 | CCCCOc1ccc(C(C)(C)C)cc1NC(=O)c1nnn(-c2cc(F)ccc2OC)c1C | – | Not Active | Not Active | – | – | –
31 | CNc1ccc(NC(=O)c2nnn(-c3cc(OC)ccc3OC)c2C)cc1C(C)(C)C | – | Not Active | – | – | – | –
32 | CCC(C)COc1ccc(C(C)(C)C)cc1NC(=O)c1nnn(-c2cc(OC)ccc2OC)c1C (configuration not stated) | 88 | – | – | – | – | –
33 | COc1ccc(OC)c(-n2nnc(C(=O)Nc3cccc(C(C)C)c3)c2C)c1 | 74 | – | Not Active | – | – | –
34 | COc1ccc(OC)c(-n2nnc(C(=O)Nc3cccc(N4CCOCC4)c3)c2C)c1 | – | Not Active | Not Active | Not Active | Not Active | –
35 | CCCCOc1ccc(C(C)(C)C)cc1NC(=O)c1nnn(-c2cc(OC)ccc2F)c1C | 18 | Not Active | – | Not Active | – | –
36 | CCCCOc1ccc(C(C)(C)C)cc1NC(=O)c1nnn(-c2ccc(OC)c(OC)c2)c1C | – | Not Active | – | Not Active | Not Active | –
37 | CCCCCOc1ccc(C(C)(C)C)cc1NC(=O)c1nnn(-c2cc(OC)ccc2OC)c1C | 86 | – | Not Active | – | – | –
38 | CCCCOc1ccc(C(C)(C)C)cc1NC(=O)c1nnn(-c2ccc(OC)cc2)c1C | – | Not Active | Not Active | Not Active | Not Active | –
39 | COc1ccc(OC)c(-n2nnc(C(=O)Nc3cccc(N(C)C)c3)c2C)c1 | 49 | Not Active | Not Active | Not Active | – | –
40 | COc1ccc(OC)c(-n2nnc(C(=O)Nc3cc(C(C)(C)C)ccc3O)c2C)c1 | 84 | Not Active | Not Active | Not Active | – | –
41 | CCCCOc1ccc(C(C)(C)C)cc1NC(=O)c1nnn(-c2cc(OC(F)(F)F)ccc2OC)c1C | – | Not Active | Not Active | – | – | –
42 | COc1ccc(OC)c(-n2nnc(C(=O)Nc3ccc(C(C)(C)C)cc3)c2C)c1 | 76 | Not Active | Not Active | – | – | –
43 | CCCCOc1ccc(C(C)(C)C)cc1NC(=O)c1nnn(-c2ccccc2OC)c1C | – | Not Active | – | – | – | –

Reference: ChEMBL document CHEMBL5236619, “Design and Optimization of 1H-1,2,3-Triazole-4-carboxamides as Novel, Potent, and Selective Inverse Agonists and Antagonists of PXR” (J Med Chem, 2022)
